Measured values: patent US20260124168A1, “OIL COMPOSITION COMPRISING CAPROIC ACID RESIDUES, UNSATURATED FATTY ACID RESIDUES AND SATURATED FATTY ACID RESIDUES” (AAK AB (PUBL), priority 2022, published 2026)

How the values were obtained:
[1] = test system: IL-10; assay: IL-10 mRNA expression in LPS-treated hMADS derived adipocytes (real-time PCR); type: cell-based, human; conditions: butyric acid 10^−4M, hexanoic acid 10^−5M, 24 h then 5 ug/mL LPS 24 h, relative to LPS without short chain fatty acids, FIG. 10
Procedure: In the experiment, adipose tissue-derived stem cells were pre-treated with butyric acid, caproic acid, and a combination thereof after which lipopolysaccharide (LPS) was added to induce (low-grade) inflammation. […] Pooled human multipotent adipose tissue-derived stem cells (hMADS), were differentiated into the adipogenic lineage, creating a human white adipocyte model. hMADS cells were derived from male human donors with a large range in BMI (20-40 kg/m2) and glucometabolic status, and age between 35 and 70 years of age. Cells were seeded at a density of 2,000 cells/cm2 and kept in proliferation medium containing Dulbecco's modified Eagle's medium (DMEM), Ham's F-12 Nutrient Mixture (Gibco, Bleiswijk, Netherlands), 10% fetal bovine serum (Bodinco BV, Alkmaar, NL, Netherlands), 50 U/ml penicillin (Gibco), and 50 μg/ml of streptomycin (Gibco)]. At 70-80% confluence, 250 μmol/L IBMX (Sigma, St. Louis, MI, USA) and 5 μmol/L rosiglitazone (Enzo Life Sciences, Raamsdonksveer, Netherlands) were added to induce adipogenic differentiation. Experiments were carried out between days 12 and 14 of the differentiation. To study the effect of butyric acid (10^-4M) and hexanoic acid (10^-5M) on the expression of the anti-inflammatory cytokine IL-10, hMADS derived adipocytes were incubated with butyric acid, hexanoic acid or the combination thereof. […]

[2] = test system: IL-6; assay: IL-6 production by LPS-treated hMADS adipocytes (ECL immunoassay); type: cell-based, human; conditions: fatty acid 10-4 to 10-9 mol 24 h then 5 ug/mL LPS 24 h, versus LPS only, all tested concentrations, FIG. 8/9
Procedure: An experiment was carried out to ascertain the extent to which butyric acid and caproic acid effect the production of the proinflammatory cytokine IL-6 in an inflammatory condition.
Pooled human multipotent adipose tissue-derived stem cells (hMADS), were differentiated into the adipogenic lineage, creating a human white adipocyte model. hMADS cells were derived from male human donors with a large range in BMI (20-40 kg/m2) and glucometabolic status, and age between 35 and 70 years of age. Cells were seeded at a density of 2,000 cells/cm2 and kept in a proliferation medium containing Dulbecco's modified Eagle's medium (DMEM), Ham's F-12 Nutrient Mixture (Gibco, Bleiswijk, Netherlands), 10% fetal bovine serum (Bodinco BV, Alkmaar, NL, Netherlands), 50 U/ml penicillin (Gibco), and 50 μg/ml of streptomycin (Gibco)].
At 70-80% confluence, 250 μmol/L IBMX (Sigma, St. Louis, MI, USA) and 5 μmol/L rosiglitazone (Enzo Life Sciences, Raamsdonksveer, Netherlands) were added to induce adipogenic differentiation. Experiments were carried out between days 12 and 14 of the differentiation. […]
IL-6 cytokine levels in the culture supernatant were evaluated using a electrochemiluminescence (ECL) immunoassay (MSD; Rockville, Maryland) according to the manufacturers protocol. […]

Row | SMILES | expression of IL-10 (mRNA) [1] | concentration of IL-6 [2]
1 | CCCCCC(=O)O [hexanoic acid] | small increase | lower
2 | CCCC(=O)O [butyric acid] | small increase | lower
